Entries after “also recorded” stand apart in the source; their conditions may differ.
Tests used:
[1] = test system: sleep-deprived healthy volunteers; test: Karolinska Sleepiness Scale (KSS) in sleep-deprived healthy volunteers; type: in vivo, human
Experimental: (§1) During the day before dosing on Day 1, participants were administered the KSS at scheduled timepoints. A practice MWT session was performed on Day 1 treatment period 1 (only once during the entire study) to familiarize subjects with the procedures. Study drug was administered in the clinic in the evening on Day 1 of each treatment period. Subjects underwent the MWT and KSS at specified timepoints after the start of the infusion. Subjects were required to stay awake between the MWT tests. Following completion of the IV infusion on Day 2, subjects underwent an additional MWT test. When the final MWT test and cognitive testing were completed, subjects were allowed to sleep (recovery sleep) for approximately 6 hours. PSG recording was collected during this time. Subjects were discharged from the unit after completion on Day 2 with continuing actigraphy upon discharge (to begin on Day −6 before the next treatment period). The interval between each subsequent treatment period was at least 7 days to ensure that the subject's circadian rhythm had returned to a normal cycle. Subject's vital signs, including BP, were monitored during the dosing and testing period. Blood samples for determination of Compound A plasma concentrations were collected at specified timepoints on Days 1 and 2 of each treatment period. Subjects completed the Columbia-Suicide Severity Rating Scale (C-SSRS) during screening, before study drug administration, and before discharge on Day 2 of each treatment period.
Secondary endpoints: • PK parameters calculated from plasma concentrations of Compound A. • Scores for sleepiness on the Karolinska Sleepiness Scale (KSS).
The secondary efficacy endpoint was sleepiness/alertness as assessed by KSS at 14, 10, 6, and 2 hours predose (approximately between 7:45 AM to 7:45 PM); 2, 2.75, 4.75, 6.75, and 8.75 hours post infusion start (approximately between mid-night to 7 AM in the morning); and at 1.75 hours post infusion end. A higher value indicates more sleepiness, a lower value indicates more alertness. Prior to infusion, there were no statistically significant differences at any time point of observation in KSS score for Compound A 44 and 112 mg treatments when compared to placebo. […] On the average, for modafinil and Compound A 44 and 112 mg, there were about 1.6 to 3.7 points increase in the KSS postdose/the infusion start, relative to that prior to dosing during the daytime. However, for placebo, the increase in the average KSS is 4.9.

[2] = test system: sleep-deprived healthy volunteers; test: Safety/tolerability of a single dose in sleep-deprived healthy adults; type: in vivo, human
Experimental: as §1
Safety endpoints: adverse events (AEs), physical examinations, vital signs, 12-lead electrocardiograms (ECGs), clinical laboratory evaluations (hematology, blood chemistry, and urinalysis), drug-liking visual analogue scale, and Profile of Mood States.

[3] = Compound A 44 mg, 1.75 HOURS POST INFUSION END
[4] = Compound A 44 mg, 2 HOURS PREDOSE
[5] = Compound A 44 mg, 2.75 HOURS POST INFUSION START
[6] = Compound A 44 mg, 4.75 HOURS POST INFUSION START
[7] = Compound A 44 mg, 6 HOURS PREDOSE
[8] = Compound A 44 mg, 6.75 HOURS POST INFUSION START
[9] = Compound A 44 mg, 8.75 HOURS POST INFUSION START
[10] = Compound A 44 mg, 10 HOURS PREDOSE
[11] = Compound A 44 mg, 14 HOURS PREDOSE
[12] = Compound A 112 mg, 1.75 HOURS POST INFUSION END
[13] = Compound A 112 mg, 2 HOURS PREDOSE
[14] = Compound A 112 mg, 2.75 HOURS POST INFUSION START
[15] = Compound A 112 mg, 4.75 HOURS POST INFUSION START
[16] = Compound A 112 mg, 6 HOURS PREDOSE
[17] = Compound A 112 mg, 6.75 HOURS POST INFUSION START
[18] = Compound A 112 mg, 8.75 HOURS POST INFUSION START
[19] = Compound A 112 mg, 10 HOURS PREDOSE
[20] = Compound A 112 mg, 14 HOURS PREDOSE
[21] = HD: Compound A 112 mg, 1.75 HOURS POST INFUSION END
[22] = HD: Compound A 112 mg, 2 HOURS PREDOSE
[23] = HD: Compound A 112 mg, 2.75 HOURS POST INFUSION START
[24] = HD: Compound A 112 mg, 4.75 HOURS POST INFUSION START
[25] = HD: Compound A 112 mg, 6 HOURS PREDOSE
[26] = HD: Compound A 112 mg, 6.75 HOURS POST INFUSION START
[27] = HD: Compound A 112 mg, 8.75 HOURS POST INFUSION START
[28] = HD: Compound A 112 mg, 10 HOURS PREDOSE
[29] = HD: Compound A 112 mg, 14 HOURS PREDOSE
[30] = HD: Compound A 112 mg, DELTA: AVERAGE POST - AVERAGE PRIOR
[31] = LD: Compound A 44 mg, 1.75 HOURS POST INFUSION END
[32] = LD: Compound A 44 mg, 2 HOURS PREDOSE
[33] = LD: Compound A 44 mg, 2.75 HOURS POST INFUSION START
[34] = LD: Compound A 44 mg, 4.75 HOURS POST INFUSION START
[35] = LD: Compound A 44 mg, 6 HOURS PREDOSE
[36] = LD: Compound A 44 mg, 6.75 HOURS POST INFUSION START
[37] = LD: Compound A 44 mg, 8.75 HOURS POST INFUSION START
[38] = LD: Compound A 44 mg, 10 HOURS PREDOSE
[39] = LD: Compound A 44 mg, 14 HOURS PREDOSE
[40] = LD: Compound A 44 mg, DELTA: AVERAGE POST - AVERAGE PRIOR

## COC(=O)N1CCC[C@H](NS(C)(=O)=O)[C@@H]1CO[C@H]1CC[C@@H](c2ccccc2)CC1 [Compound A, methyl (2R,3S)-3-((methylsulfonyl)amino)-2-(((cis-4-phenylcyclohexyl)oxy)methyl)piperidine-1-carboxylate]
[1]; Compound A 44 mg
  Difference between average KSS score post and prior to infusion start, LS Mean (SE): 3.68 (0.332)
[1]; [3]
  KSS Max: 9
  KSS Mean (SD): 8.4 (0.86)
  KSS Median: 9.0
  KSS Min: 6
[1]; [4]
  KSS Max: 9
  KSS Mean (SD): 4.0 (2.30)
  KSS Median: 3.5
  KSS Min: 1
[1]; [5]
  KSS Max: 8
  KSS Mean (SD): 4.8 (1.92)
  KSS Median: 4.5
  KSS Min: 1
[1]; [6]
  KSS Max: 9
  KSS Mean (SD): 6.4 (2.12)
  KSS Median: 6.5
  KSS Min: 2
[1]; [7]
  KSS Max: 7
  KSS Mean (SD): 2.8 (1.59)
  KSS Median: 2.5
  KSS Min: 1
[1]; [8]
  KSS Max: 9
  KSS Mean (SD): 7.8 (0.94)
  KSS Median: 8.0
  KSS Min: 6
[1]; [9]
  KSS Max: 9
  KSS Mean (SD): 8.1 (1.00)
  KSS Median: 8.0
  KSS Min: 5
[1]; [10]
  KSS Max: 7
  KSS Mean (SD): 2.8 (1.40)
  KSS Median: 3.0
  KSS Min: 1
[1]; [11]
  KSS Max: 6
  KSS Mean (SD): 2.8 (1.15)
  KSS Median: 3.0
  KSS Min: 1
[1]; Compound A 112 mg
  Difference between average KSS score post and prior to infusion start, LS Mean (SE): 1.64 (0.332)
[1]; [12]
  KSS Max: 9
  KSS Mean (SD): 8.0 (1.57)
  KSS Median: 8.5
  KSS Min: 3
[1]; [13]
  KSS Max: 6
  KSS Mean (SD): 3.4 (1.76)
  KSS Median: 3.0
  KSS Min: 1
[1]; [14]
  KSS Max: 8
  KSS Mean (SD): 3.2 (2.02)
  KSS Median: 2.0
  KSS Min: 1
[1]; [15]
  KSS Max: 9
  KSS Mean (SD): 3.8 (1.82)
  KSS Median: 3.0
  KSS Min: 1
[1]; [16]
  KSS Max: 4
  KSS Mean (SD): 2.5 (0.92)
  KSS Median: 3.0
  KSS Min: 1
[1]; [17]
  KSS Max: 9
  KSS Mean (SD): 5.2 (1.72)
  KSS Median: 5.0
  KSS Min: 2
[1]; [18]
  KSS Max: 9
  KSS Mean (SD): 6.1 (1.95)
  KSS Median: 6.0
  KSS Min: 3
[1]; [19]
  KSS Max: 7
  KSS Mean (SD): 2.5 (1.47)
  KSS Median: 2.0
  KSS Min: 1
[1]; [20]
  KSS Max: 7
  KSS Mean (SD): 3.3 (1.74)
  KSS Median: 3.0
  KSS Min: 1
[1]; [21]
  KSS Sleepy/Alert LS Mean: 8.01
  KSS Sleepy/Alert LS Mean Difference vs Placebo Estimate: −0.14
[1]; [22]
  KSS Sleepy/Alert LS Mean: 3.46
  KSS Sleepy/Alert LS Mean Difference vs Placebo Estimate: −0.44
[1]; [23]
  KSS Sleepy/Alert LS Mean: 3.24
  KSS Sleepy/Alert LS Mean Difference vs Placebo Estimate: −3.61
[1]; [24]
  KSS Sleepy/Alert LS Mean: 3.85
  KSS Sleepy/Alert LS Mean Difference vs Placebo Estimate: −4.30
[1]; [25]
  KSS Sleepy/Alert LS Mean: 2.51
  KSS Sleepy/Alert LS Mean Difference vs Placebo Estimate: −0.29
[1]; [26]
  KSS Sleepy/Alert LS Mean: 5.18
  KSS Sleepy/Alert LS Mean Difference vs Placebo Estimate: −3.32
[1]; [27]
  KSS Sleepy/Alert LS Mean: 6.07
  KSS Sleepy/Alert LS Mean Difference vs Placebo Estimate: −2.26
[1]; [28]
  KSS Sleepy/Alert LS Mean: 2.51
  KSS Sleepy/Alert LS Mean Difference vs Placebo Estimate: 0.01
[1]; [29]
  KSS Sleepy/Alert LS Mean: 3.29
  KSS Sleepy/Alert LS Mean Difference vs Placebo Estimate: 0.24
[1]; HD: Compound A 112 mg, AVERAGE POST INFUSION START (2.75, 4.75, 6.75 AND 8.75 HOURS)
  KSS Sleepy/Alert LS Mean: 4.58
[1]; HD: Compound A 112 mg, AVERAGE PRIOR TO INFUSION START (14, 10, 6, 2 HOURS PREDOSE)
  KSS Sleepy/Alert LS Mean: 2.95
[1]; [30]
  KSS Sleepy/Alert LS Mean: 1.64
  KSS Sleepy/Alert LS Mean Difference vs Placebo Estimate: −3.26
[1]; [31]
  KSS Sleepy/Alert LS Mean: 8.46
  KSS Sleepy/Alert LS Mean Difference vs Placebo Estimate: 0.31
[1]; [32]
  KSS Sleepy/Alert LS Mean: 4.01
  KSS Sleepy/Alert LS Mean Difference vs Placebo Estimate: 0.11
[1]; [33]
  KSS Sleepy/Alert LS Mean: 4.85
  KSS Sleepy/Alert LS Mean Difference vs Placebo Estimate: −2.00
[1]; [34]
  KSS Sleepy/Alert LS Mean: 6.46
  KSS Sleepy/Alert LS Mean Difference vs Placebo Estimate: −1.69
[1]; [35]
  KSS Sleepy/Alert LS Mean: 2.79
  KSS Sleepy/Alert LS Mean Difference vs Placebo Estimate: −0.01
[1]; [36]
  KSS Sleepy/Alert LS Mean: 7.79
  KSS Sleepy/Alert LS Mean Difference vs Placebo Estimate: −0.71
[1]; [37]
  KSS Sleepy/Alert LS Mean: 8.07
  KSS Sleepy/Alert LS Mean Difference vs Placebo Estimate: −0.26
[1]; [38]
  KSS Sleepy/Alert LS Mean: 2.79
  KSS Sleepy/Alert LS Mean Difference vs Placebo Estimate: 0.29
[1]; [39]
  KSS Sleepy/Alert LS Mean: 2.85
  KSS Sleepy/Alert LS Mean Difference vs Placebo Estimate: −0.20
[1]; LD: Compound A 44 mg, AVERAGE POST INFUSION START (2.75, 4.75, 6.75 AND 8.75 HOURS)
  KSS Sleepy/Alert LS Mean: 6.79
[1]; LD: Compound A 44 mg, AVERAGE PRIOR TO INFUSION START (14, 10, 6, 2 HOURS PREDOSE)
  KSS Sleepy/Alert LS Mean: 3.11
[1]; [40]
  KSS Sleepy/Alert LS Mean: 3.68
  KSS Sleepy/Alert LS Mean Difference vs Placebo Estimate: −1.22
[2]; Compound A 44 mg
  Effect on BP and pulse: minimal effect
[2]; Compound A 112 mg, mild intensity
  Drug-related TEAE of liver function test increased, number of subjects: 1 subject
[2]; Compound A 44 and 112 mg treatments
  Serious adverse events (SAEs): no SAEs were observed
[2]; change from time-matched baseline
  Changes in DBP versus Compound A plasma concentration: appeared to increase with increasing concentration
[2]; single dose 44 mg or 112 mg, slow infusion over 9 hours, healthy volunteers
  Tolerability: well-tolerated with no major safety concerns; also recorded: well tolerated overall
